Test results reported in patent publication US20240018466A1, “METHOD FOR INDUCING SALMONELLA ENTERITIDIS INTO VBNC STATE BY SODIUM HYPOCHLORITE” (Zhejiang Academy of Agricultural Sciences, priority 2022, published 2024).

How the values were obtained:
S. Enteritidis CVCC 1806 [1] = experiment: Counts of culturable cells by plate counting method after NaClO stress treatment; assay type: cell-based, Salmonella enteritidis; conditions: after 2.5 h of treatment with 50 mg/L NaClO solution, room temperature; FIG. 1
S. Enteritidis CVCC 1806 [2] = experiment: Counts of live cells by Live and Dead BacLight SYTO9/PI staining and flow cytometry after NaClO stress treatment; assay type: cell-based, Salmonella enteritidis
Method: the NaClO stock solution of NaClO disinfectant solution containing 56.8 mg/mL chlorine was diluted to 100 mg/L with sterilized sterile water for later use, and 0.5 ml of bacterial suspension (10^9 CFU/mL) and 100 mg/L NaClO solution were taken respectively into a sterile EP tube. The products in the sterile EP tube were vortex-mixed, and the stress concentration in the final system was 50 mg/L.
The mixed reagent was placed at room temperature, and systems were obtained for processing every 0.5 h within a stress treatment for up to 3 h, and 100 μL 1.5% Na2S2O3 was added to terminate the reaction.
Counts of live cells: the concentration of bacterial suspension was adjusted to 10^7-10^9 CFU/mL, and live, dead and injured bacteria were distinguished using commercial Live and Dead BacLight test kits (Molecular Probes, Carlsbad, CA, USA). […]

SMILES: OCl [NaClO, sodium hypochlorite]
- number of culturable cells (S. Enteritidis CVCC 1806 [1]): 0 CFU/ml
- total content of live cells and bacteria in the sub-lethal injury state in the system (S. Enteritidis CVCC 1806 [2]; after 2.5 h of treatment with 50 mg/L NaClO solution, flow cytometry): 60.03%
- induction of VBNC state (S. Enteritidis CVCC 1806 [2]; after 2.5 h of treatment with 50 mg/L NaClO, live minus culturable cells at maximum): enter the VBNC state
